In EP4656642A1, “ESTROGEN RECEPTOR PROTEOLYSIS TARGETING CHIMERA COMPOUND AND USE THEREOF” (GAN & LEE PHARM CO., LTD, priority 2023, dated 2024):

Key:
Type in all cases: cell-based
T-47D cells = assay: Inhibition of cell proliferation in T-47D cells (CCK-8, 6 days); settings: 6 days of treatment
Method in brief: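 T-47D cells at 3,000 cells/well in RPMI 1640 with 10% FBS were exposed to a concentration series of PROTAC compounds for 6 days at 37 °C, 5% CO2. Viability was read by CCK-8, and IC50 values were derived for proliferation inhibition.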

MCF-7 cells [1] = assay: Inhibition of cell proliferation of MCF-7 cells (CCK-8, 6 days); settings: 6 days of treatment, Table 4
Description: Test Example 3 Inhibitory effect of the PROTAC compounds provided in the present disclosure on cell proliferation of MCF-7 cells
The complete medium required for MCF-7 cells (source ATCC) was DMEM (gibco, Product number :11995-065) basal medium containing 10% fetal bovine serum. MCF-7 cells were inoculated in 96-well plates at a density of 800 cells/well, and different concentrations of the PROTAC compounds 1-55 provided in the examples of the present disclosure and a positive control sample ARV-471 (source: Innochem) were prepared to treat the cells, and the cells were treated at 37°C in a cell culture incubator with 5% CO2 for 6 days. Cell viability was detected using a CCK-8 kit (Beyotime, Product number: C0040) according to the manufacturer's instructions. The IC50 values of each PROTAC compound after 6 days of treatment were calculated using GraphPadPrism software based on the inhibition rate, and the results are shown in Table 4. Table 4 IC50 values for inhibition of the proliferation of MCF-7 cells by the PROTAC compounds of the present disclosure and positive control sample

ERα [2] = molecular target: T1, ERα (Homo sapiens, UniProt P03372); assay: Degradation of ERα in MCF-7 cells (immunoblotting, 4 h)
T1 sequence (P03372 1-595): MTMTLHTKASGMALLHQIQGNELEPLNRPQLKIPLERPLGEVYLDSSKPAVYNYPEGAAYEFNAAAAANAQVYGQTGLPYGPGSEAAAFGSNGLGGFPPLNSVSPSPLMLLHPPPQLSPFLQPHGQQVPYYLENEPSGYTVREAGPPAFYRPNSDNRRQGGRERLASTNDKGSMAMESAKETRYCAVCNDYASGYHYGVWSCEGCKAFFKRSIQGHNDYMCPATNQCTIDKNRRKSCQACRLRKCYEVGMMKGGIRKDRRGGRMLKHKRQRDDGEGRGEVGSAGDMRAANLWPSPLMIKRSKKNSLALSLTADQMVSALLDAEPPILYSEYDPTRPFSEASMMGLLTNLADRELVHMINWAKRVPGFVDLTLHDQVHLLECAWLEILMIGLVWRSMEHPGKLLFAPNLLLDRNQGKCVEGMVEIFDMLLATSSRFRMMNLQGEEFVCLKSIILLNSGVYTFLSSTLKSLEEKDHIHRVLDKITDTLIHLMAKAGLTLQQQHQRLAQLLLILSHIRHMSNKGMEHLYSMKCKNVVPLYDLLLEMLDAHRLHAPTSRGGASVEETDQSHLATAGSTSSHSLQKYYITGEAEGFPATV
Method in brief: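 MCF-7 cells treated 4 h at 37°C with compounds at 0.15-1000nM final. ERα in lysates measured by immunoblot, with band grayscale normalized to an internal reference protein. Degradation rate calculated against DMSO-treated control.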

ERα [3] = molecular target: T1, ERα; assay: Degradation of ERα in T-47D cells (immunoblotting, 4 h); design: host or cells: T-47D
Method in brief: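 T-47D cells were treated with compound (final 0.15-1000 nM, DMSO) for 4 h at 37°C, 5% CO2. Cells were lysed in RIPA buffer with protease inhibitor, and ERα protein in the cleared lysate was measured by immunoblotting.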

MCF-7 cells [4] = assay: Inhibition of cell proliferation of MCF-7 cells (CCK-8, 9 days)
Method in brief: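 MCF-7 cells seeded at 800 cells/well in DMEM with 10% FBS, exposed to a range of compound concentrations for 9 days at 37°C, 5% CO2. Viability read by CCK-8; IC50 derived for proliferation inhibition.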

[5] = treated for 9 days, CCK-8 kit (Table 6)

IC50 (T-47D cells; Table 2) [nM] | IC50 (MCF-7 cells [1]) [nM] | Degradation rate (%) of ERα in MCF-7 cells (ERα [2]; 10nM compound) [%] | Degradation rate (%) of ERα in T-47D cells (ERα [3]; 10nM compound) [%] | IC50 (T-47D cells; Table 3) [nM] | IC50 (MCF-7 cells [4]; [5]) [nM] | IC50 (T-47D cells; Homo sapiens, T47D, 144 h, Table 2) [nM] | IC50 (MCF-7 cells [1]; Homo sapiens, MCF7, 144 h) [nM] | Degradation rate (%) of ERα in MCF-7 cells (ERα [2]; 1nM compound) [%] | Degradation rate (%) of ERα in T-47D cells (ERα [3]; 1nM compound) [%] | IC50 (MCF-7 cells [4]; Homo sapiens, MCF7, 216 h, 9 days of treatment, CCK-8, Table 5) [nM] | SMILES
8 | 49500 | -17 | -11 |  |  |  |  |  |  |  | O=C1CCC(N2C(=O)c3cc4c(cc3C2=O)OC2(CC4)CCN(CC3CCN(c4ccc(C5c6ccc(O)cc6CCC5c5ccccc5)cc4)CC3)CC2)C(=O)N1 (stereo not drawn) [A1]
177 | 48200 | -17 | -23 |  |  |  |  |  |  |  | O=C1CCC(N2C(=O)c3cc4c(cc3C2=O)OC2(CC4)CCN(CC3CN(c4ccc(C5c6ccc(O)cc6CCC5c5ccccc5)cc4)C3)CC2)C(=O)N1 (stereo not drawn) [A6]
167 | 99900 | -29 | -14 |  |  |  |  |  |  |  | O=C1CCC(N2C(=O)c3cc4c(cc3C2=O)OC2(CC4)CCN(c3ccc(C4c5ccc(O)cc5CCC4c4ccccc4)cc3)CC2)C(=O)N1 (stereo not drawn) [A7]
104 | 19000 | -42 | -22 | 104 | 19 |  |  |  |  |  | O=C1CCC(N2C(=O)c3cc4c(cc3C2=O)C2(CCN(CC3CCN(c5ccc(C6c7ccc(O)cc7CCC6c6ccccc6)cc5)CC3)CC2)CO4)C(=O)N1 (stereo not drawn) [A8]
35 | 37200 | -3 | -37 |  |  |  |  |  |  |  | O=C1CCC(N2C(=O)c3cc4c(cc3C2=O)OC2(CC4)CCN(C3CC4(CCN(c5ccc(C6c7ccc(O)cc7CCC6c6ccccc6)cc5)CC4)C3)CC2)C(=O)N1 (stereo not drawn) [A10]
127 | 4600 | 4 | -1 | 127 | 4.6 |  |  |  |  |  | O=C1CCC(N2C(=O)c3cc4c(cc3C2=O)OC2(CC4)CCN(C3CCC4(CC3)CCN(c3ccc(C5c6ccc(O)cc6CCC5c5ccccc5)cc3)CC4)CC2)C(=O)N1 (stereo not drawn) [A12]
31 | 24500 | -9 | 12 |  |  |  |  |  |  |  | O=C1CCC(N2C(=O)c3cc4c(cc3C2=O)OCC2(CCN(C3CC5(CCN(c6ccc(C7c8ccc(O)cc8CCC7c7ccccc7)cc6)CC5)C3)CC2)C4)C(=O)N1 (stereo not drawn) [A13]
44 | 4820 | 5 | 4 |  |  |  |  |  |  |  | O=C1CCC(N2C(=O)c3cc4c(cc3C2=O)OCC2(CCN(C3CCC5(CC3)CN(c3ccc(C6c7ccc(O)cc7CCC6c6ccccc6)cc3)C5)CC2)C4)C(=O)N1 (stereo not drawn) [A14]
63 | 1190 | -2 | 16 |  |  |  |  |  |  |  | O=C1CCC(N2C(=O)c3cc4c(cc3C2=O)OCC2(CCN(C3CCC5(CC3)CCN(c3ccc(C6c7ccc(O)cc7CCC6c6ccccc6)cc3)CC5)CC2)C4)C(=O)N1 (stereo not drawn) [A15]
25 | 11600 | 18 | 36 |  |  |  |  |  |  |  | O=C1CCC(N2C(=O)c3cc4c(cc3C2=O)C2(CCN(C3CCC5(CC3)CN(c3ccc(C6c7ccc(O)cc7CCC6c6ccccc6)cc3)C5)CC2)CO4)C(=O)N1 (stereo not drawn) [A20]
19 | 2520 | 4 | -15 |  |  |  |  |  |  |  | O=C1CCC(N2Cc3cc4c(cc3C2=O)CCC2(CCN(C3CCC5(CC3)CCN(c3ccc(C6c7ccc(O)cc7CCC6c6ccccc6)cc3)CC5)CC2)O4)C(=O)N1 (stereo not drawn) [A21]
57 | 940 | 13 | 19 |  |  |  |  |  |  |  | O=C1CCC(N2Cc3cc4c(cc3C2=O)OC2(CC4)CCN(C3CCC4(CC3)CCN(c3ccc(C5c6ccc(O)cc6CCC5c5ccccc5)cc3)CC4)CC2)C(=O)N1 (stereo not drawn) [A22]
20 | 23400 | 8 | -1 |  |  |  |  |  |  |  | O=C1CCC(N2C(=O)c3cc4c(cc3C2=O)OC2(CCN(C3CCC5(CC3)CCN(c3ccc(C6c7ccc(O)cc7CCC6c6ccccc6)cc3)CC5)CC2)C4)C(=O)N1 (stereo not drawn) [A25]
21 | 3780 | 13 | 40 |  |  |  |  |  |  |  | O=C1CCC(N2Cc3cc4c(cc3C2=O)OCC2(CCN(C3CCC5(CC3)CCN(c3ccc(C6c7ccc(O)cc7CCC6c6ccccc6)cc3)CC5)CC2)O4)C(=O)N1 (stereo not drawn) [A26]
15 | 4360 | 4 | -15 |  |  |  |  |  |  |  | O=C1CCC(N2Cc3cc4c(cc3C2=O)OCC2(CCN(C3CCC5(CC3)CN(c3ccc(C6c7ccc(O)cc7CCC6c6ccccc6)cc3)C5)CC2)O4)C(=O)N1 (stereo not drawn) [A27]
215 | 5480 | 8 | -2 |  |  |  |  |  |  |  | O=C1CCC(N2Cc3cc4c(cc3C2=O)CCC2(CCN(C3C[C@@H]5CN(c6ccc(C7c8ccc(O)cc8CCC7c7ccccc7)cc6)C[C@@H]5C3)CC2)O4)C(=O)N1 (stereo partly drawn) [A29]
11.8 | 30200 | 23 | 46 |  |  |  |  |  |  |  | O=C1CCC(N2Cc3cc4c(cc3C2=O)OC2(CC4)CN(C3CCC4(CC3)CCN(c3ccc(C5c6ccc(O)cc6CCC5c5ccccc5)cc3)CC4)C2)C(=O)N1 (stereo not drawn) [A30]
 |  | 76 | 85 |  |  | 1.7 | 17900 | 38 | 61 | 70 | O=C1CC[C@H](N2Cc3cc(N4CCN(CC5CCN(c6ccc([C@@H]7c8ccc(O)cc8CC[C@@H]7c7ccccc7)cc6)CC5)CC4)ccc3C2=O)C(=O)N1 [ARV-471, reference compound]
229 | 10200 | -26 | -92 |  |  |  |  |  |  |  | O=C1CCC(N2Cc3cc4c(cc3C2=O)OC2(CC4)CCN(CC3CCN(c4ccc(C5c6ccc(O)cc6CCC5c5ccccc5)cc4)C3)CC2)C(=O)N1 (stereo not drawn) [B2]
56.9 | 10000 | -34 | -9 |  |  |  |  |  |  |  | O=C1CCC(N2Cc3cc4c(cc3C2=O)CCC2(CCN(CC3CCN(c5ccc(C6c7ccc(O)cc7CCC6c6ccccc6)cc5)C3)CC2)O4)C(=O)N1 (stereo not drawn) [B4]
11 | 4380 |  | 54 |  |  |  |  |  | 22 |  | O=C1CCC(N2Cc3cc4c(cc3C2=O)CCC2(CCN(C3CC5(CCN(c6ccc(C7c8ccc(O)cc8CCC7c7ccccc7)cc6)CC5)C3)CC2)O4)C(=O)N1 (stereo not drawn) [M6]
17 | 13600 |  | 56 |  |  |  |  |  | 17 |  | O=C1CCC(N2Cc3cc4c(cc3C2=O)OCC2(CCN(C3CC5(CCN(c6ccc(C7c8ccc(O)cc8CCC7c7ccccc7)cc6)CC5)C3)CC2)O4)C(=O)N1 (stereo not drawn) [M7]
130 | 53600 |  |  |  |  |  |  |  |  |  | O=C1CCC(N2C(=O)c3cc4c(cc3C2=O)OCC2(CCN(CC3CN(c5ccc(C6c7ccc(O)cc7CCC6c6ccccc6)cc5)C3)CC2)C4)C(=O)N1 (stereo not drawn) [O1]
202 | 86800 |  |  |  |  |  |  |  |  |  | O=C1CCC(N2C(=O)c3cc4c(cc3C2=O)OC2(CC4)CCN(C3CC4(C3)CN(c3ccc(C5c6ccc(O)cc6CCC5c5ccccc5)cc3)C4)CC2)C(=O)N1 (stereo not drawn) [O3]
